Results on four compounds are retold here after patent publication US20210401823A1, “INHIBITORS AND ANTAGONISTS OF GPR84 FOR THE TREATMENT OF ENDOMETRIOSIS” (Bayer Pharma Aktiengesellschaft, priority 2017, published 2021).

Experiment [1] concerns the target T1, GPR84 (Homo sapiens, UniProt Q9NQS5).
T1 construct: host or cells: CHO-K1 (cAMP Hunter CHO-K1 GPR84 Gi cells)
Briefly: GPR84 cAMP release assay, test for agonism (cAMP Hunter CHO-K1 GPR84 Gi cells, TR-FRET). To be noted: 60 min incubation. It counts as cell-based. A general note: TR-FRET usually uses a lanthanide donor and a delayed reading to cut background.
Protocol: For the resuscitation of frozen cells (cAMP Hunter™ CHO-K1 GPR84 Gi cells; DiscoverX; #95-0158C2) one vial is taken out of the liquid nitrogen storage and rapidly thawed in a water bath at 37° C. for some 1 to 3 minutes. Immediately afterwards the cells are transferred carefully by decanting into a 50 ml Falcon Tube containing 15 ml of pre-warmed full cell culture medium (HAM's F12; 10% FCS; no selection markers). Gentle swirling is used to assist their resuspension. In a next step, the cells are harvested straight away via low g centrifugation for 5 minutes (Hereaus Multifuge 4 KR; 400 rpm; rcf=44 g) to avoid over-compacting the cell pellet. Gentle decanting is used to get rid of the medium. Finally assay readiness is achieved by carefully re-suspending the cell pellet in 5 ml of the final assay medium (HAM's F12; 10% FCS; no selection markers). In a last step, cell viability and the actual cell number is determined (Omni Life Science; Casy Cell Counter/Analyzer) prior to correcting the volume for the final cell number to be seeded, i.e. 2500 cells/μl. […]
2 μl's of assay ready frozen cells are directly seeded into the wells of a non-sterile 384-well plate (Greiner; white; #784075; 5000 cells/well). […] Time resolved FRET (TR-FRET) signals are determined 60 minutes later using an appropriate HTRF reader (BMG Labtech: Pherastar). […]

A further experiment deals with PBMCs. In words: In vitro assay 2: GPR84 ligand associated IL-1beta and TNFalpha release from PBMCs (ELISA). To be noted: for IL-1beta concentration / TNF alpha concentration: PBMCs stimulated with LPS 100 ng/ml 24 hours, treatment 4 h. The class given is cell-based. On the procedure:
PBMCs were isolated by Ficoll-Paque Plus (Biochrom) density gradient centrifugation from whole blood. Briefly, PBMCs were centrifuged at 250 g for 30 sec and resuspended and cultured in RPMI 1640 medium [Gibco, CAT No. 11875093] with 10% heat-inactivated FBS, L-Glutamine (10 g/L), penicillin (100 IU/mL), and streptomycin ([…]) at 37° C. in a 5% CO2 environment. Cells were stimulated with LPS (100 ng/ml, Sigma-Aldrich) for 24 hours and treated with the GPR84 agonist 6-n-octylaminouracil and antagonist CMPD 139 for 4 h. IL-1beta and TNFalpha concentrations were analyzed by ELISA (Mesoscale Discovery, Germany).

For experiment [2], the target named is T1, GPR84. Briefly: GPR84 cAMP release assay, test for antagonism of agonist-induced activation (cAMP Hunter CHO-K1 GPR84 Gi cells, TR-FRET). The class given is cell-based. The procedure: For the resuscitation of frozen cells (cAMP Hunter™ CHO-K1 GPR84 Gi cells; DiscoverX; #95-0158C2) one vial is taken out of the liquid nitrogen storage and rapidly thawed in a water bath at 37° C. for some 1 to 3 minutes. Immediately afterwards the cells are transferred carefully by decanting into a 50 ml Falcon Tube containing 15 ml of pre-warmed full cell culture medium (HAM's F12; 10% FCS; no selection markers). Gentle swirling is used to assist their resuspension. In a next step, the cells are harvested straight away via low g centrifugation for 5 minutes (Hereaus Multifuge 4 KR; 400 rpm; rcf=44 g) to avoid over-compacting the cell pellet. Gentle decanting is used to get rid of the medium. Finally assay readiness is achieved by carefully re-suspending the cell pellet in 5 ml of the final assay medium (HAM's F12; 10% FCS; no selection markers). In a last step, cell viability and the actual cell number is determined (Omni Life Science; Casy Cell Counter/Analyzer) prior to correcting the volume for the final cell number to be seeded, i.e. 2500 cells/μl. Cell seeding is achieved either with the help of multi-channel pipettes or appropriate bulk reagent dispensers.
In a first step, 1 μl of a 4× antagonist solution in the predefined test range (prepared in assay medium; HAM's F12; 10% FCS; 2 mM Glutamin; no selection markers) is added into the wells of a non-sterile 384-well plate (Greiner; white; #784075; Immediately afterwards 2 μl's of assay ready frozen cells are directly seeded into the plate (5000 cells/well)). […] Time resolved FRET (TR-FRET) signals are determined 60 minutes later using an appropriate HTRF reader (BMG Labtech: Pherastar).
Dose response experiments for GPR84 agonists were carried out using the cAMP Hunter™ CHO-K1 GPR84 Gi cell system (DiscoverX) (PathHunter® CHO-K1 hGPR84 β-Arrestin Cell Line cultured with DMF12 HAM, 9% FBS; 300 ug/ml Hygromycin; 800 ug/ml Geneticin; 2 mM Glut; 1% Pen/Strep) in a 384-well plate format. […] Following a 60-minute incubation cAMP levels were determined by TR-FRET as described above. […]

Experiment [3] deals with Human eutopic endometrium tissue biopsies. Briefly: Ex vivo assay 1: GPR84 ligand associated endometrial inflammation assay (cytokines in supernatant, Bio-Plex). It counts as cell-based. Particulars: for IL-1beta in supernatant / TNFalpha in supernatant: endometrium slices, 21 hours. The procedure:
Human eutopic endometrium tissue biopsies as surrogate for endometriosis lesion were cut into small slices, washed with HBSS buffer [ThermoFischer, 14175095] and incubated in DMEM/F12 medium [ThermoFischer, 11320-033], supplemented with 5% FCS for 3 hours. […] After 21 hours cytokines in the supernatant were quantified with the Bio-Plex platform according to the supplier's instructions. Data were analyzed using the GraphPad Software (La Jolla, USA). […] These mediators included IL1β and TNFalpha. […] Thus, activation of GPR84 contributes to the inflammation associated with endometriosis and antagonists are able to reduce inflammation

Experiment [4] relates to mouse CFA model of inflammation. Briefly: CFA pain model, dynamic weight-bearing (DWB). It counts as in vivo. Particulars: preventive, 24 h after CFA, vehicle 42.91 +/− 19.32. The procedure: The efficacy of CMPD139 in vivo on inflammatory pain was measured in inflamed paws after administration of complete Freunds' adjuvans (CFA) (24 h) in the dynamic weight-bearing (DWB) model. The effects of repeated preventive treatment with CMPD139 on pain following repeated oral and subcutaneous administration (3×) in the mouse CFA model of inflammation were investigated using a preventive setting. The GPR84 antagonist CMPD139 (90 or 30 mg/kg, p.o.+s.c., 3× doses) was administered 2 h before injection of CFA and 6-8 h later at day 0. At 24 h after CFA application, the third dose of CMPD139 was given 2 h before DWB testing. Statistical analysis was performed with one-way analysis of variance, followed by Bonferroni's multiple comparison test against vehicle control groups using the GraphPad PRISM software, *p<0.05.

Setting [5] is: 6-n-octylaminouracil (10 μM) alone.
[6] abbreviates: 6-n-octylaminouracil (10 μM) + CMPD 139 (10 μM).
Where [7] appears, read: Decanoic Acid (10 μM) + CMPD. 139 (10 μM).

Structures are written as SMILES.

T1 sequence (Q9NQS5 whole entry): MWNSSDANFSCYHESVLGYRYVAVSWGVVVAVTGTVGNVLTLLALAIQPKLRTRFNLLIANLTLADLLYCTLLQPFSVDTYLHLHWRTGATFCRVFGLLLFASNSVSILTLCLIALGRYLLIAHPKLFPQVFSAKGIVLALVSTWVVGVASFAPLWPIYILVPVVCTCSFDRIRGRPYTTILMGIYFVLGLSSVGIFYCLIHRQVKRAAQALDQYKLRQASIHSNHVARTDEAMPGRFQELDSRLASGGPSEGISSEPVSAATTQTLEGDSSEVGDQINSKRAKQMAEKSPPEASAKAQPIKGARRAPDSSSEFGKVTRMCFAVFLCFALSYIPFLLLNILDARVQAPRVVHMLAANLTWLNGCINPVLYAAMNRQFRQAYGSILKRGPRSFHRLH

Broadly, the EC50 is the concentration giving half of the maximal effect. `CCCCCCCCC(O)C(=O)O` (stereo not shown) [2-OH-decanoic acid, 2-Hydroxydecanoic acid] displayed an EC50 at GPR84 [1] of 24000 nM.

In the experiment with PBMCs (setting [5]), `CCCCCCCCNc1cc(=O)[nH]c(=O)[nH]1` [6-n-octylaminouracil, reference compound] came in with an IL-1beta concentration of 3427.673 pg/mL and a TNF alpha concentration of 955.6923 pg/mL.

Broadly, the IC50 is the point on the concentration scale where inhibition reaches its midpoint. Read a low IC50 as higher potency. Consider `Cc1ccc(-c2ccc3c(c2)CCn2c-3cc(OCC3COc4ncccc4O3)nc2=O)cn1` (stereo not shown) [CMPD 139], for which the IL-1beta concentration with PBMCs (setting [6]) is 1933.011 pg/mL. For the same compound, the TNF alpha concentration in the experiment on PBMCs (setting [6]) stood at 479.6307 pg/mL. In addition, the “Effect on GPR84 elevated IL-1beta and TNFalpha levels” value with PBMCs (LPS-stimulated PBMCs, with 6-n-octylaminouracil) was “reduced GPR84 elevated IL-1beta and TNFalpha levels”. Also, the IC50 at GPR84 [2] (with 6-n-octylaminouracil 1.34 × 10^−7 M) is 20 nM; on GPR84 [2] (with 40 × 10^−6 M 2-OH decanoic acid), 16 nM; on GPR84 [2] (with embelin 6.00 10^−6 M), 9.4 nM. Also, the “Effect on cytokine and growth factor levels compared to agonist alone” value in experiment [3] (CMPD 139 at 10^−5 M combined with decanoic acid) was “reduced all measured cytokine and growth factors”. Further, the IL-1beta in supernatant in experiment [3] (setting [7]) worked out at 0.9600 pg/mL. Besides, in experiment [3] (setting [7]), the TNFalpha in supernatant was 1.270 pg/mL. For the same compound, the “Weight distribution (% Ipsi/contra) 2 h post last dose mean +/− SD” value in experiment [4] (3x 30 + 30 mg/kg p.o./s.c.) was 55.82 +/− 17.38 % Ipsi/contra; in experiment [4] (3x 90 + 90 mg/kg p.o./s.c., *p<0.05 vs vehicle), 60.37 +/− 15.45* % Ipsi/contra.

As to `CCCCCCCCCC(=O)O` [Decanoic acid, reference compound], in experiment [3] (Decanoic Acid (10 μM) alone), the IL-1beta in supernatant came out at 1.413 pg/mL and the TNFalpha in supernatant is recorded as 1.953 pg/mL.
